The values that follow come from patent US20250101338A1, “BIOMASS DERIVED SURFACE-ACTIVE COMPOSITIONS AND PRODUCTS” (Cambridge Glycoscience Ltd, priority 2021, published 2025).

Data set [1] is described as follows: Lipophilic substances solubilization test, lemongrass oil (Example 71). Format: physicochemical. Conditions: 2 mL of 5 wt % aqueous solution, stepwise addition of 2.5 μL, duplicate. The protocol:
After each addition, the sample was agitated with a vortex mixture for 60 s and left to stand for 5 min. If no heterogenous phase was observed visually, the oil was said to be fully soluble. If a heterogenous, immiscible biphasic or emulsion was visible, then the saturation limit for that surface-active component was said to have been exceeded. Each surface-active composition was tested in duplicate.

Data set [2] in a line: Aqueous hydrolytic stability by UPLC-MS (Example 73). Type of data set: physicochemical. Conditions: 0.5 mg/mL. The protocol: Determination of aqueous stability of the test compounds was performed using UPLC-MS. A test compound 10 mg/mL stock solution was prepared by dissolving Example 11 composition (N-decyl-N-acetylxylosylamine) (inventive surface-active composition) in DMSO. Buffer solutions, comprised of simple, commercially-available acidic or basic substances in deionized water were prepared at pH 1, pH 3, pH 4, pH 5, pH 6, pH 7, pH 9, pH 11 and pH 13.

Structures are written as SMILES.

`CCCCCCCCCCN(C(C)=O)C1OC[C@@H](O)[C@H](O)[C@H]1O` (stereo partly shown) [Example 11 composition, N-decyl N-acetyl xylosylamine]: the “Maximum volume of lemongrass oil solubilized” value in data set [1] amounted to 8.75 µL. Besides, the “Stability During 1-week (daily monitoring) (% of original concentration lost to degradation)” value in data set [2] (Buffer pH 1, 25° C.) is “(<50%)”; in data set [2] (Buffer pH 3, 25° C.) it was “(<0.1%) degradation”; in data set [2] (Buffer pH 11, 25° C.) it was “(<0.1%) degradation”; in data set [2] (Buffer pH 13, 25° C.), “(<10%)”. The “Stability During 12-hour Assay (% of original concentration lost to degradation)” value is given as “(<1%) degradation” in data set [2] (Buffer pH 1, 25° C.); “(<0.1%) degradation” in data set [2] (Buffer pH 3, 25° C.); “(<0.1%) degradation” in data set [2] (Buffer pH 11, 25° C.); “(<0.1%) degradation” in data set [2] (Buffer pH 13, 25° C.). Further, the “Stability During 1-week (daily monitoring)” value is “Full stability” in data set [2] (Buffer pH 4, 25° C.); “Full stability” in data set [2] (Buffer pH 5, 25° C.); “Full stability” in data set [2] (Buffer pH 6, 25° C.); “Full stability” in data set [2] (Buffer pH 7, 25° C.); “Full stability” in data set [2] (Buffer pH 9, 25° C.). Further, the “Stability During 12-hour Assay” value was “Full stability” in data set [2] (Buffer pH 4, 25° C.); “Full stability” in data set [2] (Buffer pH 5, 25° C.); “Full stability” in data set [2] (Buffer pH 6, 25° C.); “Full stability” in data set [2] (Buffer pH 7, 25° C.); “Full stability” in data set [2] (Buffer pH 9, 25° C.).
